From patent US20250134907A1, “FUSED DIAZEPINES AS AGONISTS OF THE INSULIN-LIKE 3 (INSL3) PEPTIDE RECEPTOR RXFP2 AND METHODS OF USE THEREOF” (The United States of America,as represented by the …, priority 2022, published 2025)
Bridges are numbered along the chain shown (N, C = ends). Roman numbers before positions name the chains, in order. Where no end group is shown, it is not given here.

Experiments:
RXFP2 [1] = target: T1, RXFP2 (Homo sapiens, UniProt Q8WXD0); assay: Luciferase cAMP assay in HEK-CRE-Luc-RXFP2 cells; format: cell-based
T1 construct: expressed in transfected cells
Experimental: A confirmatory cAMP assay was done to eliminate false positives using a HEK293T-CRE-Luc cell line stably transfected with RXFP2 (HEK-CRE-Luc-RXFP2), as this cell line expresses luciferase under the control of the cAMP response element (CRE). Activation of the RXFP2 receptor increases intracellular cAMP levels, inducing luciferase transcription in the nucleus. Thus, luciferase activity in these cells is proportional to cAMP accumulation. For this assay, cells were seeded in 96-well flat-bottom opaque plates at 20,000 cells/well in 60 μL/well of serum-free DMEM medium and allowed to attach overnight at 37° C., 5% CO2. The next morning, cells were treated with 1 μL/well of compound (25 μM-0.21 nM), 1 μM forskolin, or DMSO vehicle. Cells were also treated with 4 μL of INSL3 (100-0.01 nM) (Phoenix Pharmaceuticals, Burlingame, CA) or vehicle serum-free DMEM. Cells were incubated with the treatments for 3 hours at 37° C., 5% CO2, then rested 30 minutes at room temperature for equilibration, after which 65 μL/well of substrate AMPLITE™ Luciferase Reporter Gene Assay Kit (AAT Bioquest, Sunnyvale, CA) was added. Plates were incubated for 40 minutes at room temperature protected from light, and then luciferase output was read on a CLARIOstar plate reader (BMG Labtech, Germany). […]

RXFP2 [2] = target: T1, RXFP2; assay: HTRF cAMP assay in HEK293T cells stably expressing RXFP2 (HEK-RXFP2); format: cell-based
In short: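 HEK-RXFP2 cells in serum-free DMEM were treated with compound up to 25 μM for 1 h at 37°C, and cAMP was read by HTRF immunoassay. Condition (a): 20,000 cells/well, 200 μM IBMX, normalized to 1 nM INSL3. Condition (b): 10,000 cells/well, 1 nM INSL3. Condition (c): 7,500 cells/well, no IBMX, 100 nM INSL3.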

[3] = tested on: primary human calvarial osteoblasts (HCO); assay: CellTiter-Glo cytotoxicity assay in HCO cells; format: cell-based; settings: 24 h
Experimental: (§1) Cytotoxicity induced by the compounds in HEK293T cells and primary human calvarial osteoblasts (HCO) (ScienCell Research Laboratories, San Diego, CA) were tested using the […]-GLO™ Luminescent Cell Viability Assay (Promega, Madison, WI). This is a luminescence-based assay that determines viable cells by measuring cellular adenosine triphosphate (ATP) production. The luciferase enzyme requires ATP to catalyze the conversion of beetle luciferin to oxyluciferin and light. Thus, luciferase activity is proportional to ATP accumulation in the cells. For this assay, 96-well flat-bottom opaque plates seeded with HEK293T cells at 5,000 cells/well and HCO cells at 3,000 cells/well in 100 μL/well of growth medium (DMEM, 10% FBS, 1× Penicillin/Streptomycin). After incubating overnight at 37° C., 5% CO2 to allow attachment, cells were treated with 1 μL/well of compound (25-0.1 μM) or DMSO vehicle and incubated an additional 24 hours. Then cells were equilibrated for 30 minutes at room temperature and 100 μL/well of […]-GLO™ Reagent was added. Plates were placed on an orbital shaker for 2 minutes and incubated at room temperature for 10 minutes to stabilize the luminescent signal, which was read immediately after on a CLARIOstar plate reader (BMG Labtech, Germany). […] The HEK293T results represent the means±SEM of 3 technical replicates. The HCO results represent the means±SEM of 3 independent experiments.

HEK293T cells = assay: CellTiter-Glo cytotoxicity assay in HEK293T cells; format: cell-based, human; settings: 24 h, 25 μM and 8.3 μM
Experimental: as §1

WT RXFP2 = target: T2, WT RXFP2 (Homo sapiens, UniProt Q8WXD0); assay: HTRF cAMP assay in HEK293T cells transiently transfected with WT RXFP2; format: cell-based
T2 construct: using full-length human RXFP1 and RXFP2 receptor constructs; FLAG; expressed in transfected cells; host or cells: HEK293T (transient, Lipofectamine2000)
Description: (§2) To further investigate the involvement of the RXFP2 extracellular and transmembrane domains in agonist activation of the receptor, two complementary chimeras were created using the RXFP1 receptor, which is not activated by the agonists of formula (I), to transiently transfect HEK293T cells and measured changes in cAMP induction using the HTRF assay.
(§3) Chimeric receptors were generated by IN-FUSION™ (Takara Bio USA, Inc., San Jose, CA) mutagenesis using full-length human RXFP1 and RXFP2 receptor constructs. Polymerase chain reaction (PCR) was performed using PfuTurbo high-fidelity DNA polymerase (Agilent Technologies, Santa Clara, CA) and overlapping primers with at least 15 bp sequence homology within the fusion site. PCR products were digested with Dpnl restricton enzyme at 37° C. overnight, run on a 0.8% agarose gel and purified using the GENEJET™ Gel extraction kit (Thermo Scientific, Waltham, MA). The purified DNA fragments were then ligated into the BamHI and XhoI pre-digested pcDNA3.1™/Zeo(+) AmpR mammalian expression vector using the In-Fusion HD enzyme premix (Clontech, Mountain View, CA) at 50° C. for 15 minutes, and the resulting product was used to transform Stellar competent cells (Takara Bio USA, Inc., San Jose, CA). The clones were fully sequenced to confirm the correct fusion of both receptor fragments. Chimera RXFP2-1 contained the extracellular domain of RXFP2 and the transmembrane domain of RXFP1. Accordingly, chimera RXFP1-2 contained the extracellular domain of RXFP1 and the transmembrane domain of RXFP2.
(§4) HEK293T cells were seeded in 6-well flat-bottom clear plates at 0.5 million cells/well in 2 mL/well of growth medium (DMEM, 10% FBS, 1× Pen/Strep) and allowed to attach overnight at 37° C. and 5% CO2. The next morning, cells were transfected with 2 μg of plasmid (chimeric receptors, WT RXFP2, or WT RXFP1) and 6 μl of Lipofectamine2000 (Invitrogen, Waltham, MA) in a total volume of 200 μl/well OPTI-MEM™ I (Thermo Fisher, Waltham, MA) reduced serum medium and allowed to incubate an additional 24 hours. The next day, transfected cells were seeded in 96-well flat-bottom opaque plates at 30,000 cells/well in 60 μL/well of serum-free DMEM medium and allowed to attach overnight at 37° C. at 5% CO2. The next morning, cells were treated with 1 μL/well of compound (25 μM-0.25 nM), 2 μM forskolin, or DMSO vehicle. Cells were also treated with 4 μL of positive control INSL3 (100-0.01 nM), Relaxin2 (100-10 nM), or vehicle (serum-free DMEM+IBMX). Plates were incubated for 1 hour at 37° C. and 5% CO2, after which kit cAMP-d2 and anti-cAMP antibody were added as previously described. Cells were incubated for 1 hour at room temperature, and then the signal was read on a CLARIOstar plate reader (BMG Labtech, Germany).

[4] = tested on: chimera RXFP1-2 (extracellular domain of RXFP1, transmembrane domain of RXFP2); assay: HTRF cAMP assay in HEK293T cells transiently transfected with chimera RXFP1-2; format: cell-based, human
Description: as §2, §3, §4

[5] = tested on: chimera RXFP2-1 (extracellular domain of RXFP2, transmembrane domain of RXFP1); assay: HTRF cAMP assay in HEK293T cells transiently transfected with chimera RXFP2-1; format: cell-based, human
Description: as §2, §3, §4

T1 sequence (Q8WXD0 whole entry): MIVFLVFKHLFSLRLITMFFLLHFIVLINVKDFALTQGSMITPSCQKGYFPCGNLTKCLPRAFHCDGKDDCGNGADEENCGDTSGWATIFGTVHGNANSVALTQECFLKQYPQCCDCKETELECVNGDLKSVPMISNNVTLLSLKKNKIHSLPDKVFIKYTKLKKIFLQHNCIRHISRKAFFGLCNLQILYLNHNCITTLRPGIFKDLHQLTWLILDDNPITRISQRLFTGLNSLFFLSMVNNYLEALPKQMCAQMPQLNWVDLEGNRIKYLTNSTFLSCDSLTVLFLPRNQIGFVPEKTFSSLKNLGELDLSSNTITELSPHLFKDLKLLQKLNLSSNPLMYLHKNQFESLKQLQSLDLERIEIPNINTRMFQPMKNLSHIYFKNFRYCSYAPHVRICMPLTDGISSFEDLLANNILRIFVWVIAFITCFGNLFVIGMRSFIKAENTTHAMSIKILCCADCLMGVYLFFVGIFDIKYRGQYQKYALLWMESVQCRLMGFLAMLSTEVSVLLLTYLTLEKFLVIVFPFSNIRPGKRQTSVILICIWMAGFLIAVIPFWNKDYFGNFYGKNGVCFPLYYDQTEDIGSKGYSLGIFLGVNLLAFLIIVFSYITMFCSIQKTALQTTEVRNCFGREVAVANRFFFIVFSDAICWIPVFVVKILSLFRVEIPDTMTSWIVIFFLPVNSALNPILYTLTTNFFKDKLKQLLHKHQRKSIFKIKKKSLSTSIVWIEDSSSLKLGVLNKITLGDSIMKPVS
T2 sequence (Q8WXD0 whole entry): as above

## Cc1cc(-c2ccc3c(c2)C(=O)N2CCN(C(=O)COc4ccc(OC(F)(F)F)cc4Br)C[C@H]2C(=O)N3)cc(C(F)(F)F)c1 [Example 153, (S)-2-(2-(2-bromo-4-(trifluoromethoxy)phenoxy)acetyl)-8-(3-methyl-5-(trifluoromethyl)phenyl)-1,3,4,12a-tetrahydrobenzo[e]pyrazino[1,2-a][1,4]diazepine-6,12 (2H, 11H)-dione]
RXFP2 [1]; 3 h treatment, 25 μM-0.21 nM
  EC50: 24.6 nM
RXFP2 [1]; relative to 10 nM INSL3 response
  Emax (% Eff vs. 10 nM INSL3): 109.6%
RXFP2 [2]; condition (b): 10,000 cells/well, IBMX 200 μM
  EC50: 23.6 to 50.2 nM
RXFP2 [2]; condition (b): 10,000 cells/well, IBMX 200 μM, normalized to 1 nM INSL3 cAMP response
  % EFF vs. 1 nM INSL3 (b): 149.80-150.94%
RXFP2 [2]; condition (c): 7,500 cells/well, IBMX omitted
  EC50: 101 to 319 nM
RXFP2 [2]; condition (c): 7,500 cells/well, IBMX omitted, normalized to 100 nM INSL3 cAMP response
  % EFF vs. 100 nM INSL3 (c): 45.16-86.79%
[3]; 25 μM
  cytotoxicity: minimal toxicity
[3]; lower concentrations than 25 μM
  cytotoxicity: not toxic
HEK293T cells
  cytotoxicity: some toxicity

## I: PTPEMREKLCGHHFVRALVRVCGGPRWSTEA / II: AAATNPARYCCLSGCTQQDLLTLCPY (disulfide I:10-II:11, I:22-II:24, II:10-II:15) [INSL3]
WT RXFP2; HEK-293T, normalized to 2 μM forskolin cAMP response as 100% activity
  Emax: 78.4 ± 11.2%
WT RXFP2; read-out: EC50 (μM or nM)
  EC50: 0.0005 ± 0.00035 µM
[4]
  cAMP response of chimera RXFP1-2: did not respond
[5]
  cAMP response of chimera RXFP2-1: levels comparable to WT RXFP2
[5]; RXFP2-1 chimera, normalized to 2 μM forskolin cAMP response as 100% activity
  Emax: 92.30 ± 21.82%
[5]; RXFP2-1 chimera, read-out: EC50 (μM or nM)
  EC50: 0.00074 ± 0.00061 µM
